Assay results: patent publication US20020183384A1, “Methods of treating nuclear factor-kappa B mediated diseases and disorders” (priority 2001, published 2002)
Read-outs that look alike come from different tables or passages of the source.

Test system: NF-κB mediated transcription
Assay: NF-κB driven β-lactamase reporter assay in ECV-304 NF-κB.βlaZ cells (AURORA CCF2 fluorescence)
Format: cell-based, human
Settings: 10 μM compound, ECV-304 NF-κB.βlaZ cells stimulated with 10 ng/mL TNF-α or 100 pg/mL IL-1β, 6 hours at 37° C., inhibition of maximum blue/green ratio; for inhibition at 10 µM: Homo sapiens, read-out: Percent Inhibition at 10 μM
Summary of the method: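 ECV-304 cells (clone 1E8) stably carrying a β-lactamase reporter driven by 5 HIV-1 NF-κB sites, plated in M-199 with 2% FBS, compound at 10 μM final. CCF2 read at 395 nm excitation, blue 460 nm/green 530 nm emission ratio; IC50 from dose-response curve.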

Row | Compound | inhibition at 10 µM [%] | other results
1 | CCCCCCCCCCCCCCN(C)S(=O)(=O)NC(=O)Nc1c(C(C)C)cccc1C(C)C [Example 84, Urea, N-[2,6-bis(1-methylethyl)phenyl]-N′-[(methyltetradecylamino)-sulfonyl]-] |  | inhibition at 10 µM (ECV-304, 6 h): 44.8%
2 | CCCCCCCCN(CCCCCCCC)S(=O)(=O)NC(=O)Oc1c(C(C)C)cccc1C(C)C [Example 85, Carbamic acid, [(dioctylamino)sulfonyl]-, 2,6-bis(1-methylethyl)phenyl ester] | 45 | 
3 | CC(C)c1cccc(C(C)C)c1OC(=O)NS(=O)(=O)N(C(C)C)C1CCCCC1 [Example 86, Carbamic acid, [[cyclohexyl(1-methylethyl)amino]sulfonyl]-, 2,6-bis(1-methylethyl)phenyl ester] | 16 | 
4 | CCCCCCCCN(C)S(=O)(=O)NC(=O)Oc1c(C(C)C)cccc1C(C)C [Example 87, Carbamic acid, [(methyloctylamino)sulfonyl]-, 2,6-bis(1-methylethyl)-phenyl ester] | < 10 | 
5 | CCCCCCN(CCCCCC)S(=O)(=O)NC(=O)Oc1c(C(C)C)cccc1C(C)C [Example 88, Carbamic acid, [(dihexylamino)sulfonyl]-, 2,6-bis(1-methylethyl)phenyl ester] | < 10 | 
6 | CCCCCN(CCCCC)S(=O)(=O)NC(=O)Oc1c(C(C)C)cccc1C(C)C [Example 89, Carbamic acid, [(dipentylamino)sulfonyl]-, 2,6-bis(1-methylethyl)phenyl ester] | 31.9 | 
7 | CCCCCCCCCCOS(=O)(=O)NC(=O)Nc1c(C(C)C)cccc1C(C)C [Example 90, Sulfamic acid, [[[2,6-bis(1-methylethyl)phenyl]amino]carbonyl]-, decyl ester] |  | inhibition at 10 µM (ECV-304, 6 h): 13.6%
8 | CC(C)c1cccc(C(C)C)c1OS(=O)(=O)NC(=O)Oc1c(C(C)(C)C)cccc1C(C)(C)C [Example 91, Carbamic acid, [[2,6-bis(1-methylethyl)phenoxy]sulfonyl]-, 2,6-bis(1,1-dimethylethyl)phenyl ester] | 39.7 | 
9 | CCCCCCCCCCCCOS(=O)(=O)NC(=O)Oc1c(-c2ccccc2)cccc1-c1ccccc1 [Example 92, Carbamic acid, [(dodecyloxy)sulfonyl]-, [1,1′:3′,1″-terphenyl]-2′-yl ester] | < 10 | 
10 | CCCCCCCCCCCCOS(=O)(=O)NC(=O)Sc1c(C(C)C)cccc1C(C)C [Example 93, Carbamothioic acid, [(dodecyloxy)sulfonyl]-, S-[2,6-bis(1-methylethyl)-phenyl] ester] |  | inhibition at 10 µM (ECV-304, 6 h): 14.5%
11 | CCCCCCC(C)OS(=O)(=O)NC(=O)Nc1c(C(C)C)cccc1C(C)C (stereo not shown) [Example 94, Sulfamic acid, [[[2,6-bis(1-methylethyl)phenyl]amino]carbonyl]-, 1-methylheptyl ester,] |  | Percent Inhibition at 10 μM: <10%
12 | CC(C)c1cccc(C(C)C)c1NC(=O)NS(=O)(=O)Oc1c(C(C)C)cccc1C(C)C [Example 95, Sulfamic acid, [[[2,6-bis(1-methylethyl)phenyl]amino]carbonyl]-, 2,6-bis(1-methylethyl)phenyl ester] |  | inhibition at 10 µM (ECV-304, 6 h): 33.1%
13 | CC(C)c1cccc(C(C)C)c1OC(=O)NS(=O)(=O)Oc1ccccc1 [Example 97, Carbamic acid, (phenoxysulfonyl)-, 2,6-bis(1-methylethyl)phenyl ester] | < 10 | 
14 | Cc1cccc(C)c1OS(=O)(=O)NC(=O)Oc1c(C(C)C)cccc1C(C)C [Example 98, Carbamic acid, [(2,6-dimethylphenoxy)sulfonyl]-, 2,6-bis(1-methylethyl)-phenyl ester] | < 10 | 
15 | CCCCN(CCCC)S(=O)(=O)N(C)C(=O)Nc1c(C(C)C)cccc1C(C)C [Example 99, Urea, N′-[2,6-bis(1-methylethyl)phenyl]-N-[(dibutylamino)sulfonyl]-N-methyl-] |  | inhibition at 10 µM (ECV-304, 6 h): < 10%
16 | CC(C)(C)c1cccc(C(C)(C)C)c1OC(=O)NS(=O)(=O)Oc1c(C(C)(C)C)cccc1C(C)(C)C [Example 100, Carbamic acid, [[2,6-bis(1,1-dimethylethyl)phenoxy]sulfonyl]-, 2,6-bis(1,1-dimethylethyl)phenyl ester] | 50 | 
17 | CC(C)c1cccc(C(C)C)c1OC(=O)NS(=O)(=O)Oc1c(C(C)(C)C)cccc1C(C)(C)C [Example 102, Carbamic acid, [[2,6-bis(1,1-dimethylethyl)phenoxy]sulfonyl]-, 2,6-bis(1-methylethyl)phenyl ester] | 20.6 | 

Row | Compound | inhibition at 10 µM [%] | other results
18 | CC(C)c1cccc(C(C)C)c1OC(=O)NS(=O)(=O)Oc1c(F)cccc1F [Example 103, Carbamic acid, [(2,6-difluorophenoxy)sulfonyl]-, 2,6-bis(1-methylethyl)-phenyl ester] | < 10 | 
19 | CC1(C)OCC(NC(=O)NS(=O)(=O)NCC23CC4CC(CC(C4)C2)C3)C(c2ccccc2)O1 (stereo not drawn) [Example 104, Urea, N-(2,2-dimethyl-4-phenyl-1,3-dioxan-5-yl)-N′-[[(tricyclo[3.3.1.1^3,7]dec-1-ylmethyl)amino]sulfonyl]-, (4S-#cis/)-] |  | Percent Inhibition at 10 μM: <10%
20 | CCCCCCCCCC(=O)NS(=O)(=O)Oc1c(C(C)C)cccc1C(C)C [Example 106, Sulfamic acid, (1-oxodecyl)-, 2,6-bis(1-methylethyl)phenyl ester] |  | inhibition at 10 µM (ECV-304, 6 h): 72.3%
21 | CCCCCCCCCCCCCCCCOS(=O)(=O)NC(=O)Oc1c(C(C)C)cccc1C(C)C [Example 107, Carbamic acid, [(hexadecyloxy)sulfonyl]-, 2,6-bis(1-methylethyl)phenyl ester] | < 10 | 
22 | COc1cccc(OC)c1OC(=O)NS(=O)(=O)Oc1c(C(C)C)cccc1C(C)C [Example 108, Carbamic acid, [[2,6-bis(1-methylethyl)phenoxy]sulfonyl]-, 2,6-dimethoxyphenyl ester] | < 10 | 
23 | CCCCCCC(C)OC(=O)NS(=O)(=O)Oc1c(C(C)C)cccc1C(C)C (stereo not shown) [Example 109, Carbamic acid, [[2,6-bis(1-methylethyl)phenoxy]sulfonyl]-, 1-methylheptyl ester] |  | inhibition at 10 µM (ECV-304, 6 h): 51.4%
24 | CC(C)c1cc([N+](=O)[O-])cc(C(C)C)c1OC(=O)NS(=O)(=O)Oc1c(C(C)C)cccc1C(C)C [Example 110, Carbamic acid, [[2,6-bis(1-methylethyl)phenoxy]sulfonyl]-, 2,6-bis(1-methylethyl)-4-nitrophenyl ester] | 15.5 | 
25 | CC(C)c1cccc(C(C)C)c1OS(=O)(=O)NC(=O)OCCOC(=O)NS(=O)(=O)Oc1c(C(C)C)cccc1C(C)C [Example 111, Carbamic acid, [[2,6-bis(1-methylethyl)phenoxy]sulfonyl]-, 1,2-ethanediyl ester] |  | Percent Inhibition at 10 μM: <10%
26 | CC(C)c1cccc(C(C)C)c1OS(=O)(=O)NC(=O)OCC(COC(=O)NS(=O)(=O)Oc1c(C(C)C)cccc1C(C)C)OC(=O)NS(=O)(=O)Oc1c(C(C)C)cccc1C(C)C [Example 112, Carbamic acid, [[2,6-bis(1-methylethyl)phenoxy]sulfonyl]-, 1,2,3-propanetriyl ester] |  | Percent Inhibition at 10 μM: <10%
27 | CC(C)c1cc(Br)cc(C(C)C)c1OC(=O)NS(=O)(=O)Oc1c(C(C)C)cccc1C(C)C [Example 113, Carbamic acid, [[2,6-bis(1-methylethyl)phenoxy]sulfonyl]-, 4-bromo-2,6-bis(1-methylethyl)phenyl ester] | < 10 | 
28 | CC(C)c1cccc(C(C)C)c1OS(=O)(=O)NC(=O)Oc1c(-c2ccccc2)cccc1-c1ccccc1 [Example 114, Carbamic acid, [[2,6-bis(1-methylethyl)phenoxy]sulfonyl]-, [1,1′:3′,1″-terphenyl]-2′-yl ester] | < 10 | 
29 | COc1cc(C(C)(C)C)c(OC(=O)NS(=O)(=O)Oc2c(C(C)C)cccc2C(C)C)c(C(C)(C)C)c1 [Example 115, Carbamic acid, [[2,6-bis(1-methylethyl)phenoxy]sulfonyl]-, 2,6-bis(1,1-dimethylethyl)-4-methoxyphenyl ester] | 39 | 
30 | CC(C)c1cccc(C(C)C)c1OS(=O)(=O)NC(=O)Oc1c(C(C)C)c(C(C)C)c(F)c(C(C)C)c1C(C)C [Example 116, Carbamic acid, [[2,6-bis(1-methylethyl)phenoxy]sulfonyl]-, 4-fluoro-2,3,5,6-tetrakis(1-methylethyl)phenyl ester] | < 10 | 
31 | CC(C)c1cc(Cl)cc(C(C)C)c1OC(=O)NS(=O)(=O)Oc1c(C(C)C)cccc1C(C)C [Example 117, Carbamic acid, [[2,6-bis(1-methylethyl)phenoxy]sulfonyl]-, 4-chloro-2,6-bis(1-methylethyl)phenyl ester] | < 10 | 
32 | CC[C@H](C=C[C@@H](C)[C@H]1CC[C@H]2[C@@H]3CC=C4C[C@H](OC(=O)NS(=O)(=O)Oc5c(C(C)C)cccc5C(C)C)CC[C@]4(C)[C@H]3CC[C@]12C)C(C)C [Example 118, Stigmasta-5,22-dien-3-ol, [[2,6-bis(1-methylethyl)phenoxy]sulfonyl]-carbamate, (3α)-] |  | inhibition at 10 µM (ECV-304, 6 h): < 10%
33 | Cc1cc(C(C)(C)C)c(OC(=O)NS(=O)(=O)Oc2c(C(C)C)cccc2C(C)C)c(C(C)(C)C)c1 [Example 119, Carbamic acid, [[2,6-bis(1-methylethyl)phenoxy]sulfonyl]-, 2,6-bis(1,1-dimethylethyl)-4-methylphenyl ester] | 56.6 | 
34 | CC(C)c1cc(C(C)C)c(CC(=O)NS(=O)(=O)Oc2c(C(C)C)cccc2C(C)C)c(C(C)C)c1 [Example 120, Sulfamic acid, [[2,4,6-tris(1-methylethyl)phenyl]acetyl]-, 2,6-bis(1-methylethyl)phenyl ester] |  | inhibition at 10 µM (ECV-304, 6 h): 55%
